The source of these data is publication PMC11141866, “Pyrimidine depletion enhances targeted and immune therapy combinations in acute myeloid leukemia” (JCI Insight, 2024).

The test system of assay [1] is HL-60 disseminated CDX model. As to the kind of experiment: HL-60 CDX synergy with decitabine. In kind it is in vivo, NCG mice. As to conditions: Decitabine 0.4 mpk IP (4on/10off), HOSU53 10 mpk p.o. qd, or both; flag 0 = censored at day 82. As for the experimental part:
Female 8- to 12-week-old female NCG mice were engrafted with 1 × 10^7 cells via tail vein i.v. injection. At 14 days after engraftment (day 1 of treatment), mice (n = 10/arm) were randomized to receive p.o. qd and i.p. vehicle (p.o. qd 40% HPβCD and 4 on/10 off i.p. PBS), 10 mg/kg HOSU-53, i.p. 0.4 mg/kg decitabine on a 4-day on/10-day off cycle, or their combination till moribundity or end of study day 82.

Assay [2] relates to MOLM-13. In words: MTS proliferation assay, MOLM-13. The assay is classed as cell-based. As to conditions: Homo sapiens, MOLM-13, 96 h, read-out: IC50 (MTS proliferation). As for the experimental part: (§1) A total of 10,000–20,000 cells from different AML lines or 50,000–75,000 cells of primary AML blasts were treated in a 96-well plate for 72 hours or 96 hours at 37°C, 5% CO2. CellTiter 96 Aqueous MTS reagent (Promega) was added to cells followed by a 3-hour incubation at 37°C, 5% CO2. The absorbance was measured at 490 nm using DTX 880 plate reader, and the IC50 was calculated using GraphPad Prism.
In general terms: Tetrazolium assays rely on reduction of a dye to a coloured formazan, in cell work by metabolically active cells.

Assay [3] has as its system OCI-AML3. As to the kind of experiment: MTS proliferation assay, OCI-AML3. Particulars: Homo sapiens, OCI-AML-3, 96 h, read-out: IC50 (MTS proliferation). In kind it is cell-based. The method, then: as §1
In assay [4] the test system is THP1. As to the kind of experiment: MTS proliferation assay, THP1. In kind it is cell-based. As to conditions: Homo sapiens, THP-1, 96 h, read-out: IC50 (MTS proliferation). The method, then:
as §1

For assay [5], the system named is U937. As to the kind of experiment: MTS proliferation assay, U937. As to conditions: Homo sapiens, U-937, 96 h, read-out: IC50 (MTS proliferation). The assay is classed as cell-based. The method, then: as §1
Assay [6] relates to Kasumi. As to the kind of experiment: MTS proliferation assay, Kasumi. The assay is classed as cell-based. As to conditions: Homo sapiens, 96 h, read-out: IC50 (MTS proliferation). As for the experimental part: as §1
For assay [7], the system named is primary AML patient samples. As to the kind of experiment: Flow cytometry viability, primary AML long-term culture. In kind it is cell-based, human. As to conditions: 500nM. As for the experimental part:
(§2) Cells were thawed in 50% FBS RPMI and then cultured in StemSpan (StemCell Technologies) media supplemented with human FLT3L, SCF, GM-CSF, G-CSF, IL-3, IL-6, TPO, and EPO cytokines for 7 days (LTC).
(§3) After 72 hours or 7 days of treatment of DHODHi, cells were collected and washed with PBS, blocked with human Fc block (BioLegend), and stained with antibodies for 30 minutes on ice. Antibodies were washed off and cells resuspended in FACS buffer (2% FBS, 2 mM NaN3, Dulbecco’s PBS) for analysis using BD LSRFortessa or Cytek Aurora spectral flow cytometer. Live/dead exclusion was done using LIVE/DEAD Fixable Near-IR (Invitrogen). All antibodies were purchased from BioLegend except CD47, which was purchased from BD Biosciences: CD11b clone M1/70, CD38 clone HIT2, CD14 clone M5E2, CD47 clone B6H12, CD33 clone WM53, CD3 clone UCHT1, CD19 clone HIB19, and CD45 clone HI30.
Supplemental Figure S.2. […] A).
Flow cytometry analysis of viable primary AML patient samples (n=10) treated in vitro for seven days
(long term culture, LTC). […]
A general note: In flow cytometry, cells or beads pass a laser one at a time.

Assay [8] deals with primary AML samples. In words: Flow cytometry CD38 surface expression, primary AML samples. In kind it is cell-based, human. Particulars: 500nM. As for the experimental part:
as §2, §3

The test system of assay [9] is primary AML patient samples. As to the kind of experiment: Flow cytometry CD47 surface expression, primary AML samples. In kind it is cell-based, human. As to conditions: 500nM. The method, then:
as §2, §3
Supplemental Figure S.8. DHODHi modulates CD47 surface antigen expression. A) Representative flow cytometry overlay histogram plot for CD47 surface expression in MV4-11 cell line following a 72- […]
supplementation (experiment was done five independent times). B) Flow cytometry analysis of CD47 surface expression in primary AML patient samples (n=8-10) treated in vitro for seven days (long term culture, LTC). Data is shown as mean florescent intensity (MFI) of CD47 gated on live CD45+CD3-CD19- cells, error bars indicate mean with 95% confidence interval. C) Representative flow cytometry […]
modulation of CD47 post DHODHi treatment.
(1 picture or pasted object on this page, not shown here)

pIC50: −log10 of the molar value. “And” between values parts separate entries of the source, which are not always exact repeats. Equal entries are not always repeated.

Regarding `Nc1ncn([C@H]2C[C@H](O)[C@@H](CO)O2)c(=O)n1` [Decitabine, decitabine, reference compound], in [1], the “Survival, day of study at event (per animal)” value was 40 days and 41 days and 43 days and 45 days and 47 days.

`Cc1c(-c2ccc(-c3ccccc3F)cc2)nc2ccc(F)cc2c1C(=O)O` [BRQ, brequinar]: the pIC50 is 6.42 in [2]; 6.32 in assay [3]; 6.05 in [4]; 5.70 in assay [5]; 5.93 in assay [6]. Also, the “% Live (Near-IR negative)” value in [7] (Pt.13, DMSO 72.92) is recorded as 74.35%; in [7] (Pt.14, DMSO 68.39) it was 69.22%; in assay [7] (Pt.15, DMSO 61.7) it was 34.7%; in [7] (Pt.16, DMSO 45.99) it was 44.41%; in [7] (Pt.17, DMSO 29.84), 27.99%; in assay [7] (Pt.18, DMSO 29.72) it was 24.94%. The “% Live (Near-IR negative)” value was found to be 72.29% in assay [7] (Pt.19, DMSO 75.66) and 44.18% in [7] (Pt.20, DMSO 67.67). Moreover, the “CD38 MFI” value worked out at 685.5 in assay [8] (Pt.13, DMSO 803.93); 20.07 in assay [8] (Pt.14, DMSO 15.61); 776.17 in assay [8] (Pt.15, DMSO 168); 196.87 in assay [8] (Pt.16, DMSO 274.9); 2098.18 in assay [8] (Pt.17, DMSO 1637.55); 85.41 in assay [8] (Pt.18, DMSO 74.26). The “CD38 MFI” value is on record as 1760 in assay [8] (Pt.19, DMSO 997.1) and 223.42 in assay [8] (Pt.20, DMSO 193.57). Besides, the “CD47 MFI” value was 1311.31 in assay [9] (Pt.13, DMSO 1665.27); 845.1 in assay [9] (Pt.14, DMSO 585.79); 847.29 in [9] (Pt.15, DMSO 1002.16); 1999.15 in assay [9] (Pt.16, DMSO 1349.33); 370.44 in assay [9] (Pt.17, DMSO 334.61); 1024.38 in assay [9] (Pt.18, DMSO 869.17). Further, the “CD47 MFI” value in assay [9] (Pt.19, DMSO 364.4) stood at 470.75; in [9] (Pt.20, DMSO 398.54) it was 499.32.
